From patent US7175856B2, “Palatable oral suspension and method” (Bristol-Myers Squibb Company, priority 2002, dated 2007)

Assay: physchem
Assay type: physicochemical

solubility (aqueous buffer): ~70 µg/mL | solubility (water): ~17400 µg/mL
SMILES: C[C@H]1NCc2cc(-c3ccc4c(=O)c(C(=O)O)cn(C5CC5)c4c3OC(F)F)ccc21 [des-quinolone, 1-Cyclopropyl-8-(difluoromethoxy)-7-[(1R)-1-methyl-2,3-dihydro-1H-5-isoindolyl]-4-oxo-1,4-dihydro-3-quinolinecarboxylic acid methanesulfonate monohydrate]
